The values below come from patent US11661404B2, “Prodrug compounds activated by AKR1C3 and their use for treating hyperproliferative disorders” (priority 2018, dated 2023).

SMILES strings stand for the structures.

The target in this test is T1, recombinant human AKR1C3 (Homo sapiens, UniProt P42330).
T1 construct: His6 (hexahistidine) (C); made in house; host or cells: E. coli BL21(DE3)
T1 sequence (P42330 1-323): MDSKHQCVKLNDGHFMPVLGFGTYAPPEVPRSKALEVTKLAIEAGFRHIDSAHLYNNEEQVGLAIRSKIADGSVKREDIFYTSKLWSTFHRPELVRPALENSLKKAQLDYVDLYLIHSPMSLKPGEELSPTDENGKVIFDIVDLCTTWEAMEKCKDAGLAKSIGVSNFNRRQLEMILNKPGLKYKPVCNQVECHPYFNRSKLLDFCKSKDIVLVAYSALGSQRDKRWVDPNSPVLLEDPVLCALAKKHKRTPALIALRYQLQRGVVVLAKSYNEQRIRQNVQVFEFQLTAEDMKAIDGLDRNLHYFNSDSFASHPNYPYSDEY
Description: Kinetics assay: metabolism of prodrugs by recombinant human AKR1C3. In kind it is biochemical. The following applies: NADPH, pH 7.4, 37° C. As for the experimental part: E. coli BL21(DE3) cells expressing the pET22b-AKR1C3 construct with a C-terminal hexahistidine (His6) tag and constitutive promoter was generated. Colonies of these transformed E. coli cells were grown in LB agar medium containing 100 μg/mL of ampicillin. A single colony was picked the following day and grown in 400 mL batches of bacterial medium containing ampicillin (100 μg/mL) at 37° C., with continuous shaking at 200 rpm overnight. Bacterial cultures were pelleted by centrifugation (4000×g, 15 minutes) and resuspended in lysis buffer (10 mL/400 mL culture). The cells were disrupted by sonication (Sonicator 3000, Misonix) and centrifuged at 14,000 rpm for 30 minutes (at 4° C.). The cleared lysate was filtered in successive filters containing pore sizes of 1.20 μm, 0.8 μm and 0.2 μm and loaded onto a nickel-agarose affinity chromatography column on an ÄKTA Purifier system. The column was washed with 20 mL of the lysis buffer and the His6-tagged AKR1C3 protein was eluted with lysis buffer supplemented with 500 mM imidazole. The protein was further purified by a liquid chromatography gel filtration column (Superdex 200 HR16/60) using lysis buffer (supplemented with 5% v/v glycerol) and 1 mM DTT (pH 7.0) at a flow rate of 0.3 mL/min. Protein was monitored by absorbance at 280 nm, and purity of the fractions (1 mL) was assessed by SDS-PAGE. Active fractions containing the purified protein were pooled and concentrated by centrifugation (3,000×g, 4° C.) on a Vivaspin concentrator (MWCO 10,000 cutoff; GE Healthcare). The protein containing solution was supplemented with glycerol (to a final concentration of 15%, v/v) and NADP^+ was added to a final concentration of 2 mM.
Kinetic parameters of compounds of the invention were determined in a 96-well plate format. The 100 mM potassium phosphate buffer used in this assay was made with the following reagents to a pH of 7.4: • 0.5 M K2HPO4— 8.2 mL • 0.5 M KH2PO4— 1.8 mL • BSApowder—25 mg • Milli Q water—40 mL
For the assay, 2 μL of varying substrate concentrations were incubated with 94 μL of the potassium phosphate buffer and 2 μL of 5 mM NADPH for 5 minutes in the pre-warmed (37° C.) plate chamber of a Molecular Devices SpectraMax M2 plate reader. Purified AKR1C3 enzyme (2 μL) was added to a final concentration of […] in each well using an Eppendorf electronic multi-channel pipette. Absorbance measurements were recorded immediately upon addition of enzyme over a period of 5 minutes at a wavelength of 400 nm. Absorbance changes for each compound concentration were plotted against time to obtain the rate of absorbance change over the 5 minute period. The rate of absorbance change was then plotted against the compound concentration and non-linear regression analysis and Michaelis-Menten curve fitting performed on GraphPadPrism (version 5.00 for Windows, GraphPad Software, San Diego Calif. USA) in order to determine kinetic parameters of compounds.
As usually defined, the kcat is the number of substrate molecules converted per active site and unit of time at saturation. As for `CN1CCN(C(=O)c2cc([N+](=O)[O-])ccc2N(CCBr)CCOS(C)(=O)=O)CC1` [SN34454, reference compound], the kcat came out at 5.2 s⁻¹.

A word on the Km: it is the concentration of substrate that gives half-maximal velocity. Consider `CN1CCN(C(=O)c2cc([N+](=O)[O-])ccc2N(CCBr)CCBr)CC1` [SN34118, reference compound], for which the Km was 9 µM and the kcat came out at 18.7 s⁻¹.

Consider `O=[N+]([O-])c1ccc(N(CCBr)CCBr)c(S(=O)(=O)N2CCN(CC(O)CO)CC2)c1` (stereo not shown) [Compound 566, 3-(4-((2-(bis(2-bromoethyl)amino)-5-nitrophenyl)sulfonyl)piperazin-1-yl)propane-1,2-diol], for which the Km was 32.2 µM and the kcat is 67.1 s⁻¹.

Regarding `CS(=O)(=O)OCCN(CCBr)c1ccc([N+](=O)[O-])cc1S(=O)(=O)N1CCN(CC(O)CO)CC1` (stereo not shown) [Compound 605, 2-((2-bromoethyl)(2-((4-(2,3-dihydroxypropyl)piperazin-1-yl)sulfonyl)-4-nitrophenyl)amino)ethyl methanesulfonate], the Km is 17.1 µM.

Consider `CN1CCN(S(=O)(=O)c2cc([N+](=O)[O-])ccc2N(CCBr)CCOS(C)(=O)=O)CC1` [Compound 602, 2-((2-bromoethyl)(2-((4-methylpiperazin-1-yl)sulfonyl)-4-nitrophenyl)amino)ethyl methanesulfonate], for which the Km was 33.1 µM.

Consider `CN1CCN(S(=O)(=O)c2cc([N+](=O)[O-])ccc2N(CCOS(C)(=O)=O)CCOS(C)(=O)=O)CC1` [Compound 641, ((2-((4-methylpiperazin-1-yl)sulfonyl)-4-nitrophenyl)azanediyl)bis(ethane-2,1-diyl) dimethanesulfonate], for which the Km came to 21.5 µM.

As to `CS(=O)(=O)OCCN(CCBr)c1c(C(=O)NCCO)cc([N+](=O)[O-])cc1[N+](=O)[O-]` [PR-104A, 2-((2-bromoethyl)(2-((2-hydroxyethyl)-carbamoyl)-4,6-dinitrophenyl)amino)ethyl methanesulfonate, reference compound], the Km turned out to be 72.9 µM and the catalytic constant (kcat) turned out to be 18.7 s⁻¹.
